For one assay, the target named is T1, HDM2 (Homo sapiens, UniProt Q00987).
T1 construct: Thioredoxin (N); made in house; host or cells: E. coli strain BL21(DE3)Rosetta
T1 sequence (Q00987 17-125): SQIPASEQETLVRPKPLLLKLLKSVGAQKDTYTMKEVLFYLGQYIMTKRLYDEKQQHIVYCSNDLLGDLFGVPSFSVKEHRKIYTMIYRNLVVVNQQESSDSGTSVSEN
Nature of the assay: FRET assay (HDM2 inhibition; method not described in this part). Type of assay: binding. Particulars: Table 1.
In general, IC50 refers to the point on the concentration scale where inhibition reaches its midpoint. A lower IC50 goes with inhibition by little substance. The molecule `CCc1ccc(OC)c(-c2nc3nc(C(=O)O)nc(N[C@H](C)C4CCC4)c3n2Cc2ccc(C(F)(F)F)cc2)c1` [Example 1.31, 6-{[(1R)-1-cyclobutylethyl]amino}-8-(5-ethyl-2-methoxyphenyl)-7-[4-(trifluoromethyl)benzyl]-7H-purine-2-carboxylic acid] showed an IC50 of 18.7 nM.
Same read-out and setting: the same measure for `Cc1c(C(C)C)ccnc1-c1nc2nc(C(=O)O)nc(N[C@H](C)C3CCC3)c2n1Cc1ccc(C(F)(F)F)cc1` [Example 1.87, 6-{[(1R)-1-cyclobutylethyl]amino}-8-[3-methyl-4-(1-methylethyl)pyridin-2-yl]-7-[4-(trifluoromethyl)benzyl]-7H-purine-2-carboxylic acid]: 59 nM; for `COc1ccc(-c2nc3nc(C(=O)O)nc(N[C@H](C)C4CCC4)c3n2Cc2ccc(C(F)(F)F)cc2)cc1C` [Example 1.105, 6-{[(1R)-1-cyclobutylethyl]amino}-8-(4-methoxy-3-methylphenyl)-7-[4-(trifluoromethyl)benzyl]-7H-purine-2-carboxylic acid]: 16.5 nM.
Same read-out and setting: the same measure for `C[C@@H](Nc1nc(C(=O)O)nc2nc(-c3cc(Cc4ccccc4)ccn3)n(Cc3ccc(C(F)(F)F)cc3)c12)C1CCC1` [Example 1.9, (R)-8-(4-benzylpyridin-2-yl)-6-((1-cyclobutylethyl)amino)-7-(4-(trifluoromethyl)benzyl)-7H-purine-2-carboxylic acid]: 37.4 nM.
On the same count and under the same terms, the same measure for `C[C@@H](Nc1nc(C(=O)O)nc2nc(-c3ccc(S(C)(=O)=O)cc3)n(Cc3ccc(C(F)(F)F)cc3)c12)C1CCC1` [Example 1.24, 6-{[(1R)-1-cyclobutylethyl]amino}-8-[4-(methylsulfonyl)phenyl]-7-[4-(trifluoromethyl)benzyl] - 7H-purine-2-carboxylic acid]: 112 nM; for `COCOc1ccc(C(C)C)cc1-c1nc2nc(C(=O)O)nc(N[C@H](C)C3CCC3)c2n1Cc1ccc(C(F)(F)F)cc1` [Example 1.30, 6-{[(1R)-1-cyclobutylethyl]amino}-8-[2-(methoxymethoxy)-5-(1-methylethyl)phenyl]-7-[4-(trifluoromethyl)benzyl]-7H-purine-2-carboxylic acid]: 54.4 nM.
For `Cc1ccnc(-c2nc3nc(C(=O)O)nc(N[C@H](C)C4CCC4)c3n2Cc2ccc(C(F)(F)F)cc2)c1` [Example 1.17, 6-{[(1R)-1-cyclobutylethyl]amino}-8-(4-methylpyridin-2-yl)-7-[4-(trifluoromethyl)benzyl]-7H-purine-2-carboxylic acid], the IC50 was 12.7 nM.
The same measure, in the same setting: the figure for `CC(C)Oc1cccc(-c2nc3nc(C(=O)O)nc(N[C@H](C)C4CC4)c3n2Cc2ccc(C(F)(F)F)cc2)c1` [Example 1.98, 6-{[(1R)-1-cyclopropylethyl]amino} -8-[3-(1-methylethoxy)phenyl]-7-[4-(trifluoromethyl)benzyl]-7H-purine-2-carboxylic acid] is 316 nM; for `C[C@@H](Nc1nc(C(=O)O)nc2nc(-c3cc(N(C)C)ccc3OC(F)(F)F)n(Cc3ccc(C(F)(F)F)cc3)c12)C1CCC1` [Example 1.1, (R)-6-((1-cyclobutylethyl)amino)-8-(5-(dimethylamino)-2-(trifluoromethoxy)phenyl)-7-(4-(trifluoromethyl)benzyl)-7H-purine-2-carboxylic acid] it is 11.4 nM; for `CCc1ccnc(-c2nc3nc(C(=O)O)nc(N[C@H](C)C4CCC4)c3n2Cc2ccc(C(F)(F)F)c(F)c2)c1` [Example 1.79, 6-{[(1R)-1-cyclobutylethyl]amino}-8-(4-ethylpyridin-2-yl)-7-[3-fluoro-4-(trifluoromethyl)benzyl]-7H-purine-2-carboxylic acid] it is 10.2 nM.
Same read-out and setting: the figure for `Cc1cc(-c2nc3nc(C(=O)O)nc(N[C@H](C)C4CCC4)c3n2Cc2ccc(C(F)(F)F)cc2)ccc1F` [Example 1.137, 6-{[(1R)-1-cyclobutylethyl]amino}-8-(4-fluoro-3-methylphenyl)-7-[4-(trifluoromethyl)benzyl]-7H-purine-2-carboxylic acid] is 49.7 nM; for `C[C@@H](Nc1nc(C(=O)O)nc2nc(-c3ccc(-c4ccccc4)c(F)c3)n(Cc3ccc(C(F)(F)F)cc3)c12)C1CCC1` [Example 1.112, 6-{[(1R)-1-cyclobutylethyl]amino}-8-(2-fluorobiphenyl-4-yl)-7-[4-(trifluoromethyl)benzyl]-7H-purine-2-carboxylic acid] it is 344 nM.
Still for that read-out and setting: the figure for `CC(C)Oc1cccc(-c2nc3nc(C(=O)O)nc(N[C@H](C)C4CCC4)c3n2Cc2ccc(C(F)(F)F)cc2)c1` [Example 1.127, 6-{[(1R)-1-cyclobutylethyl]amino}-8-[3-(1-methylethoxy)phenyl]-7-[4-(trifluoromethyl)benzyl]-7H-purine-2-carboxylic acid] is 38.7 nM; for `C[C@@H](Nc1nc(C(=O)O)nc2nc(-c3ccc(C4CCCCC4)cc3)n(Cc3ccc(C(F)(F)F)cc3)c12)C1CCC1` [Example 1.110, 6-{[(1R)-1-cyclobutylethyl]amino}-8-(4-cyclohexylphenyl)-7-[4-(trifluoromethyl)benzyl]-7H-purine-2-carboxylic acid] it is 3700 nM; for `C[C@@H](Nc1nc(C(=O)O)nc2nc(-c3cc4ccccc4cn3)n(Cc3ccc(C(F)(F)F)cc3)c12)C1CCC1` [Example 1.62, 6-{[(1R)-1-cyclobutylethyl]amino}-8-isoquinolin-3-yl-7-[4-(trifluoromethyl)benzyl] - 7H-purine-2-carboxylic acid] it is 45.8 nM.

The same assay, now with this note: Table 2.
In turn, `C[C@@H](Nc1nc(C(=O)O)nc2nc(-c3ccc(OC(F)(F)F)cc3)n(Cc3ccc(C(F)(F)F)cc3)c12)C1CC1` [Example 2.27, 6-{[(1R)-1-cyclopropylethyl]amino}-8-[4-(trifluoromethoxy)phenyl]-7-[4-(trifluoromethyl)benzyl]-7H-purine-2-carboxylic acid] came in with an IC50 of 1140 nM. This counts as single-digit micromolar.
Regarding `C[C@@H](Nc1nc(C(=O)O)nc2nc(-c3ccccc3C(F)(F)F)n(Cc3ccc(C(F)(F)F)cc3)c12)C1CCC1` [Example 2.79, 6-{[(1R)-1-cyclobutylethyl]amino}-7-[4-(trifluoromethyl)benzyl]-8-[2-(trifluoromethyl)phenyl]-7H-purine-2-carboxylic acid], the midpoint of inhibition, the IC50, lay at 13.4 nM.
On the same count and under the same terms, the same measure for `C[C@@H](Nc1nc(C(=O)O)nc2nc(-c3cccc(F)c3F)n(Cc3ccc(C(F)(F)F)cc3)c12)C1CC1` [Example 2.73, 6-{[(1R)-1-cyclopropylethyl]amino}-8-(2,3-difluorophenyl)-7-[4-(trifluoromethyl)benzyl]-7H-purine-2-carboxylic acid]: 111 nM.
The same measure, in the same setting: the same measure for `Cc1cccc(-c2nc3nc(C(=O)O)nc(N[C@H](C)C4CCC4)c3n2Cc2ccc(C(F)(F)F)cc2)c1` [Example 2.11, 6-{[(1R)-1-cyclobutylethyl]amino}-8-(3-methylphenyl)-7-[4-(trifluoromethyl)benzyl]-7H-purine-2-carboxylic acid]: 36.6 nM; for `CCc1cccc(-c2nc3nc(C(=O)O)nc(N[C@H](C)C4CC4)c3n2Cc2ccc(C(F)(F)F)cc2)c1` [Example 2.16, 6-{[(1R)-1-cyclopropylethyl]amino}-8-(3-ethylphenyl)-7-[4-(trifluoromethyl)benzyl]-7H-purine-2-carboxylic acid]: 180 nM.
Same read-out and setting: the figure for `C[C@@H](Nc1nc(C(=O)O)nc2nc(-c3cccc(Cl)c3)n(Cc3ccc(Cl)cc3)c12)C1CC1` [Example 2.5, 7-(4-chlorobenzyl)-8-(3-chlorophenyl)-6-{[(1R)-1-cyclopropylethyl]amino}-7H-purine-2-carboxylic acid] is 218 nM.
`C[C@@H](Nc1nc(C(=O)O)nc2nc(-c3ccc(F)cc3F)n(Cc3ccc(C(F)(F)F)cc3)c12)C1CCC1` [Example 2.68, 6-{[(1R)-1-cyclobutylethyl]amino}-8-(2,4-difluorophenyl)-7-[4-(trifluoromethyl)benzyl]-7H-purine-2-carboxylic acid] had an IC50 of 22.4 nM.

Staying with this assay, now noted: Table 3.
In turn, `C[C@@H](Nc1nc(C(=O)O)nc2nc(-c3nccs3)n(Cc3ccc(Cl)cc3)c12)C1CC1` [Example 3.8, 7-(4-chlorobenzyl)-6-{[(1R)-1-cyclopropylethyl]amino}-8-(1,3-thiazol-2-yl)-7H-purine-2-carboxylic acid] had an IC50 of 98.8 nM. In other words, the double-digit nanomolar range.

Still in this assay, the particulars now being: Table 4.
On to `Cc1ccc(OCCCN2CCN(C)CC2)c(-c2nc3nc(C(=O)O)nc(N[C@H](C)C4CC4)c3n2Cc2ccc(Cl)cc2)c1` [Example 4.17, (R)-7-(4-chlorobenzyl)-6-(1-cyclopropylethylamino)-8-(5-methyl-2-(3-(4-methylpiperazin-1-yl)propoxy)phenyl)-7H-purine-2-carboxylic acid], for which it took 507 nM to reach half-maximal inhibition (IC50).
`Cc1ccc(O)c(-c2nc3nc(C(=O)O)nc(N[C@H](C)C4CC4)c3n2Cc2ccc(Cl)cc2)c1` [Example 4.18, (R)-7-(4-chlorobenzyl)-6-((1-cyclopropylethyl)amino)-8-(2-hydroxy-5-methylphenyl)-7H-purine-2-carboxylic acid] registered an IC50 of 347 nM.

Still in this assay, the particulars now being: Table 5.
Regarding `Cc1cccc(-c2nc3nc(C(=O)O)nc(N[C@H](C)C4CC4)c3n2Cc2ccc(F)c(C(F)(F)F)c2)c1` [Example 5.4, 6-{[(1R)-1-cyclopropylethyl]amino}-7-[4-fluoro-3-(trifluoromethyl)benzyl]-8-(3-methylphenyl)-7H-purine-2-carboxylic acid], the IC50 worked out at 4140 nM.
As for `Cc1cccc(-c2nc3nc(C(=O)O)nc(N[C@H](C)C4CC4)c3n2Cc2ccc(OC(F)(F)F)cc2)c1` [Example 5.8, 6-{[(1R)-1-cyclopropylethyl]amino}-8-(3-methylphenyl)-7-[4-(trifluoromethoxy)benzyl]-7H-purine-2-carboxylic acid], the IC50 is 149 nM.
The same measure, in the same setting: the figure for `CCOc1cc(C(F)(F)F)ccc1Cn1c(-c2cccc(C)c2)nc2nc(C(=O)O)nc(N[C@H](C)C3CCC3)c21` [Example 5.18, 6-{[(1R)-1-cyclobutylethyl]amino}-7-[2-ethoxy-4-(trifluoromethyl)benzyl]-8-(3-methylphenyl)-7H-purine-2-carboxylic acid] is 207 nM; for `Cc1cccc(-c2nc3nc(C(=O)O)nc(N[C@H](C)C4CCC4)c3n2Cc2ccc(OC(F)(F)F)c(F)c2)c1` [Example 5.14, 6-{[(1R)-1-cyclobutylethyl]amino}-7-[3-fluoro-4-(trifluoromethoxy)benzyl]-8-(3-methylphenyl)-7H-purine-2-carboxylic acid] it is 36.4 nM.
